Publication PMC7144376, “Antiviral Effects of Novel 2-Benzoxyl-Phenylpyridine Derivatives” (Molecules, 2020)

Assays:
Type in all cases: cell-based, Coxsackievirus B3
[1] = test system: CVB3 protein; experiment: CVB3 protein by indirect immunofluorescence; settings: 160 μM, Hep-2 cells
Protocol: (§1) Figure 5 Effect of W13 on CVB3 replication in Hep-2 cells. Hep-2 cells infected with 100 TCID50 CVB3 were incubated in the absence or presence of 160 µM W13 and harvested at the indicated times post-infection. (a) Progeny virus yields were determined. (b) Viral RNA levels were measured by analysis of total RNA. GAPDH was amplified and the resulting data was used for normalization. Values represent the means ± SDs of three independent experiments. * p < 0.05; ** p < 0.01, compared with the virus control group. (c) CVB3 protein levels were determined by indirect immunofluorescence, using the mouse anti-coxsackie virus B3 monoclonal antibody, MAB948, and an alexa-fluor-488-conjugated affiniPure goat anti-mouse IgG (H + L), after incubation with W13 for 24 h. Nuclei were stained with DAPI and green foci indicate the presence of CVB3 protein.
The influence of W13 on CVB3 replication was also determined at the translational level. […] Then, intracellular viral protein was detected by indirect immunofluorescence analysis after incubation for 8, 24, and 36 h.
Hep-2 cells (1 × 10^5) were seeded in 24-well plates and incubated overnight. […] After the plates had been washed three times with 0.1% Tween-20 in PBS, they were incubated with the appropriate Alexa-Fluor-488-labeled secondary antibody (Invitrogen) and fluorescence evaluated using an OLYMPUS IX73 microscope (Tokyo, Japan).

[2] = test system: CVB3; experiment: Time course of CVB3 progeny yield in Hep-2 cells; settings: 160 μM, 32 h pi
Protocol: To further investigate the effects of these compounds on CVB3 replication, we analyzed the efficacy of representative compound, W13, in inhibiting viral progeny yield, RNA synthesis, and protein translation. Infected cells treated with or without 160 μM W-13 were harvested after 4 h, 8 h, 16 h and 32 h, viral progeny yields were determined using the Reed–Muench method, and quantitative reverse transcription polymerase chain reaction analysis of harvested cells were conducted, to evaluate the relative amounts of viral RNA. […] Figure 5b illustrates the efficacy of W-13 in inhibiting viral RNA synthesis. […]
Figure 5 Effect of W13 on CVB3 replication in Hep-2 cells. […] (a) Progeny virus yields were determined. (b) Viral RNA levels were measured by analysis of total RNA. […] (c) CVB3 protein levels were determined by indirect immunofluorescence, using the mouse anti-coxsackie virus B3 monoclonal antibody, MAB948, and an alexa-fluor-488-conjugated affiniPure goat anti-mouse IgG (H + L), after incubation with W13 for 24 h. […]
CVB3 or ADV7 suspensions, serially diluted 10-fold with DMEM containing 2% FBS (DMEM maintenance medium, MM), were inoculated to Hep-2 or HeLa cells in 96-well plates. […] After 2 days, infected cells were monitored for CPEs and virus titers were calculated using the Reed–Muench method.

[3] = test system: CVB3 RNA; experiment: CVB3 RNA by quantitative reverse transcription-PCR; settings: 160 μM, Hep-2 cells, 32 h pi, normalized to GAPDH
Protocol: To further investigate the effects of these compounds on CVB3 replication, we analyzed the efficacy of representative compound, W13, in inhibiting viral progeny yield, RNA synthesis, and protein translation. Infected cells treated with or without 160 μM W-13 were harvested after 4 h, 8 h, 16 h and 32 h, viral progeny yields were determined using the Reed–Muench method, and quantitative reverse transcription polymerase chain reaction analysis of harvested cells were conducted, to evaluate the relative amounts of viral RNA. […] Figure 5b illustrates the efficacy of W-13 in inhibiting viral RNA synthesis. Viral RNA became detectable in the virus control group during the first 4 h pi, followed by significant increases at subsequent time points.
as §1, with “Values represent the means ± SDs of three independent experiments. * p < 0.05; ** p < 0.01, compared with the virus control group.” left out, “Nuclei were stained with DAPI and green foci indicate the presence of CVB3 protein.” left out

SMILES: Cc1ccc(OC(=O)C(C)(C)C)c(-c2ccccn2)c1 [W13]
- viral protein synthesis (immunofluorescence foci) [1]: suppressed
- reduction in viral replication (progeny virus titer) [2]: ~3.0 log
- reduction of viral RNA copy numbers [3]: approximately 500 fold
